This assay deals with Mus musculus. The experiment in a line: Protective activity of compound against lethal systemic infection by Staphylococcus aureus 8008 (MRSA) in ICR mice at 1 hr after subcutaneous administration. The class given is functional. The note with it: sc.

Drawing on ChEMBL document CHEMBL1130441, “Studies on -lactam antibiotics. Synthesis and antibacterial activity of novel 1-methylcarbapenems related to FR21818: 5-membered ring analogs” (1997), this text covers ED50 for one molecule.

SMILES strings stand for the structures.

As usually defined, the ED50 is the dose at which the effect has come halfway, by size or by number of responders. Consider `C[C@@H](O)[C@H]1C(=O)N2C(C(=O)O)=C(SCCNC=N)C[C@H]12` [IMIPENEM ANHYDROUS], for which the ED50 amounted to 7.02 mg/kg.
